Results: patent US20150011492A1, “ANTI-RESTENOSIS COMPOSITIONS AND METHODS” (WISCONSIN ALUMNI RESEARCH FOUNDATION, priority 2013, published 2015)
“Also recorded” adds a separate entry of the source.

Columns and labels:
[1] = system: human ECs; test: CellTiter-Glo luminescent cell viability assay, ECs; assay type: cell-based; conditions: 200 nM
Source text: For human SMCs, cell densities ranging from about 1,000 cells per well to about 5,000 cells per well were aliquoted into 96-well plates and cultured in the SmGM-2 medium (Lonza CC-3182) with 5% serum.
This robust well-to-well consistency achieved by our experimental system is better reflected by a Z′ value of 0.63. […] See, e.g., Tomasini-Johansson et al., J. Intl. Soc. Matrix Biol. (2012); Zhang et al., J. Biomol. Screening 4:67-73 (1999); Patel et al., PloS One 7:e36594 (2012). In parallel experiments, a CellTiter-Glo® luminescent cell viability assay (Cat. #7570, Promega), which quantifies ATP levels in cell lysates, was evaluated as an additional and more sensitive orthologous assay for cell number. Sachsenmeier et al., PLoS One 17:993-8 (2012). Using the CellTiter-Glo® assay, Rapamycin which is used in drug-eluting stents at 200 nM produced >50% inhibition of both human SMCs and ECs with Z′ values of 0.56 to 0.75 respectively (FIG. 2). In addition, CellTiter-Glo® assays using resveratrol for both SMCs and ECs also produced high Z′ values (>0.7) (data not shown). Curve fitting was performed with the Prism software (GraphPad).

[2] = system: human SMCs; test: CellTiter-Glo luminescent cell viability assay, SMCs; assay type: cell-based; conditions: 200 nM
Procedure: Freshly collected HuAoSMCs (passage 5) were counted ([…]) by Cellometer AutoT4 (Nexelon Bioscience), and dispensed using Microflo Select (BioTek) to a final density of 2700 cells/[…]/well in the SmGM-2 medium in a 96-well plate. After a 24 hour incubation to allow cell attachment, […] of DMSO (vehicle) or […] of resveratrol (a known SMC growth inhibitor) stock in DMSO was robotically transferred using Biomek FX (Beckman) from a resveratrol stock plate into cell culture (final […] resveratrol). DMSO and resveratrol were added into alternate columns of wells (8 wells per column). Cell growth/proliferation was monitored by reading fluorescence from the AlamarBlue® cell viability reagent (Invitrogen). See Antczak et al., J. Biomol. […] After incubation with resveratrol for 72 hours, AlamarBlue reagent was added using Matrix Hydra (Thermo-Fisher) and incubated with cells for another 24 hours, and fluorescence was then determined using a Safir2 plate reader (Tecan, excitation/fluorescence: 530 nm/590 nm, bandwidth: 15 nm). The data from 40 wells of vehicle and 40 wells of resveratrol treatments were analyzed for assessment of well-well consistency in the assay. […] It was determined that reading Alamar Blue fluorescence 24 hours after incubation reduced variance compared to reading after shorter incubation (e.g., 4 hours). […]

[3] = system: balloon-injured rat carotid arteries; test: Rat carotid balloon angioplasty model, perivascular drug delivery in pluronic gel; assay type: in vivo, Male Sprague-Dawley rats
Procedure: Balloon injury of the left common carotid artery was performed in Male Sprague-Dawley rats (300-350 g) according to the method described previously (Kundi et al., Cardiovasc Res. 84(2):326-35 (2009). Briefly, after induction of anesthesia with isoflurane, a 2F balloon catheter was inserted through the left external carotid artery into the common carotid and insufflated three times at 2 atm of pressure. The external carotid artery was then ligated, and blood flow was resumed through the common and internal carotid arteries. For perivascular drug delivery, resveratrol (500 μg) or halofuginone (30 μg) or DMSO dissolved in 200 μL of 25% F127 pluronic gel (Sigma-Aldrich) in PBS was evenly applied, immediately after reestablishment of flow, around the injured segment of the carotid artery (5 animals in each group). The pluronic gel is a biodegradable polymer that is soluble in water at 4° C. but becomes a gel when in contact with tissues at 37° C. (Ji et al., Circ. Res. 100:1579-88 (2007)). Rats were euthanized 14 days after injury, and the common carotid arteries were collected and fixed in 4% paraformaldehyde overnight for embedding in paraffin.
For morphometric analysis of intimal hyperplasia, ten evenly spaced sections through each injured carotid artery were stained using routine hematoxylin and eosin (H&E) and images were collected with light microscopy. Intimal and medial areas and circumference were determined by measuring the internal elastic lamina (IEE) and external elastic lamina (EEL) for each section using the ImageJ software (National Institutes of Health). Kundi et al., Cardiovasc. Res. 84:326-35 (2009); Kingston et al., Circulation 108:2819-25 (2003). The difference in intimal hyperplasia between the compound treatment group and the control group was analyzed with the Student t-test (P<0.05).
To mark endothelial cells, immunohistochemistry using an anti-CD31 antibody was performed on rat carotid sections based on our published methods. Suwanabol et al., Am J Physiol Heart Circ Physiol. 302:H2211-19 (2012); Kundi et al., Cardiovasc. Res. 84:326-35 (2009); Si et al., Arterioscler. Thromb. Vasc. Biol. 32:943-54 (2012). Briefly, the carotid sections were incubated with the anti-CD31 antibody (Santa Cruz Biotechnology) overnight at 4° C., followed by rhodamine-conjugated secondary antibody (DAKO) for 60 minutes at room temperature. Antibody controls included species-matched IgG. Images were taken with a fluorescence microscope.
Balloon angioplasty was performed in the left common carotid artery of male Sprague-Dawley rats. Immediately after resuming the blood flow, idarubicin (110 μg) or DMSO control dissolved in 300 μL of 25% F127 pluronic gel was applied around the injured artery. At 14 days after injury, arteries were collected and cross-sections were prepared and H&E stained. Intimal and medial areas, and circumference were determined by measuring the internal elastic lamina (IEE) and external elastic lamina (EEL) for each section using the ImageJ software. The difference in intimal hyperplasia (ratio of intima to media) between the idarubicin treatment group and the control group was analyzed with the Student t-test (P<0.05). Immunostaining of CD31, an endothelial cell marker, was performed on the sections to assess re-endothelialization.
Using the carotid artery sections collected on day 14 following angioplasty, we performed immunostaining for CD31 (FIGS. 10A-C), a commonly used marker for assessment of the endothelium, in a rat carotid injury model at 14 days. Briefly, a goat anti-CD31 primary antibody (R&D Sytems, 1:150) was incubated with the sections for 1 hour followed by an incubation with a biotinylated rabbit-anti-goat secondary antibody for 30 minutes. Immunostaining of CD31 was then visualized by using streptavidin-HRP and DAB.

[4] = system: primary human aortic smooth muscle cells (HuAoSMCs); test: AlamarBlue cell viability assay of HuAoSMC proliferation (automated HTS); assay type: cell-based
Source text: Alamar Blue was purchased from Invitrogen (Carlsbad, Calif.). Cell Titer Glo was from Promega (Madison, Wis.). Primary human aortic smooth muscle cells (HuAoSMCs) and primary human aortic endothelial cells (HuAoECs) at passage 3 were purchased from Lonza; their respective optimal culture media (SmGM-2 and EGM-2) were from the same commercial source. Cells were used at passage 5 after expansion. Trypsin/EDTA solution was from Clonetics (Walkersville, Md.); and DPBS was from Gibco (Invitrogen, Carlsbad, Calif.). Microtiter tissue 96-well culture plates with transparent flat-bottoms and black-walled sides were from Costar (Corning, N.Y.). Resveratrol and idarubicin were products of Sigma-Aldrich (St. Louis, Mo.). […]
Freshly collected HuAoSMCs (passage 5) were counted ([…]) by Cellometer AutoT4 (Nexelon Bioscience), and dispensed using Microflo Select (BioTek) to a final density of 2700 cells/[…]/well in the SmGM-2 medium in a 96-well plate. […] Cell growth/proliferation was monitored by reading fluorescence from the AlamarBlue® cell viability reagent (Invitrogen). […] After incubation with resveratrol for 72 hours, AlamarBlue reagent was added using Matrix Hydra (Thermo-Fisher) and incubated with cells for another 24 hours, and fluorescence was then determined using a Safir2 plate reader (Tecan, excitation/fluorescence: 530 nm/590 nm, bandwidth: 15 nm). […]

[5] = system: HuAoSMCs; test: Dose response proliferation assay, HuAoSMCs (96-well plate); assay type: cell-based, human
Procedure: FIGS. 5A-B present comparative dose responses of HuAoSMCs and HuAoECs for idarubicin (A) and resveratol (B).
Cryo-protected frozen HuAoSMCs and HuAoECs (Lonza, passage 3) were thawed and cultured in their respective media that are optimized for cell growth by the manufacturer. HuAoSMCs (“SMCs”) were grown in the SmGM-2 medium containing 5% FBS, and HuAoECs (“ECs”) in the EGM-2 medium containing 2% FBS in a humidified incubator at 37° C. with 5% CO2.

[6] = system: primary human aortic endothelial cells (HuAoECs); test: Counter-screen / dose response proliferation assay, HuAoECs
[7] = system: balloon-injured rat carotid arteries; test: Rat carotid balloon angioplasty model, perivascular drug delivery in pluronic gel; assay type: in vivo, Male Sprague-Dawley rats; remark: listed apart in the source
[8] = halofuginone 30 μg in 200 μL pluronic gel, 14 days
[9] = relative to controls not contacted to idarubicin formulation
[10] = Example 5, local perivascular application, day 14 following angioplasty, 5 rats
[11] = idarubicin applied locally around injured artery, day 14
[12] = medium dose 0.5 mg/mL in pluronic gel

SMILES: CO[C@H]1C[C@@H]2CC[C@@H](C)[C@@](O)(O2)C(=O)C(=O)N2CCCC[C@H]2C(=O)O[C@H]([C@H](C)C[C@@H]2CC[C@@H](O)[C@H](OC)C2)CC(=O)[C@H](C)/C=C(\C)[C@@H](O)[C@@H](OC)C(=O)[C@H](C)C[C@H](C)/C=C/C=C/C=C/1C [Rapamycin]
- inhibition at 0.2 µM [1]: > 50%
- inhibition at 0.2 µM [2]: > 50%

SMILES: O=C(CC1NCCCC1O)Cn1cnc2cc(Br)c(Cl)cc2c1=O (stereo not shown) [halofuginone]
- effect on intimal hyperplasia, in words [3, 8]: inhibits intimal hyperplasia
- effect on re-endothelialization (CD31 staining), in words [3, 8]: not re-endothelialization; also recorded: not affected
- reduction of intimal hyperplasia (intima/media ratio) ([3]; halofuginone 30 μg in 200 μL pluronic gel, periadventitial, 14 days after injury): 74%
- SMC growth in cell assays, in words [4]: inhibit SMC growth

SMILES: CC(=O)[C@]1(O)Cc2c(O)c3c(c(O)c2[C@@H](O[C@H]2C[C@H](N)[C@H](O)[C@H](C)O2)C1)C(=O)c1ccccc1C3=O [idarubicin, (7S,9S)-9-Acetyl-7-[(3-amino-2,3,6-trideoxy-α-L-lyxo-hexapyranosyl)oxy]-7,8,9,10-tetrahydro-6,9,11-trihydroxy-5,12-naphtacenedione]
- SMC versus EC proliferation, dose response (in words) ([5]; approximately 50 nM to 1000 nM): impedes SMC proliferation to a significantly greater extent than ECs; also recorded: differentially inhibited SMC proliferation with a lesser effect on ECs
- inhibition of smooth muscle cell proliferation [5, 9]: up to 80%
- increase of lumen size [3, 10]: 45%
- reduction of intimal hyperplasia [3, 10]: 80%
- effect on intimal hyperplasia (intima/media), in words [3, 11]: effectively reduced; also recorded: inhibitory effect; also recorded: inhibits intimal hyperplasia in a dose-dependent manner
- effect on re-endothelialization (CD31 staining), in words [3, 11]: not affected; also recorded: absence of idarubicin's effect; also recorded: preserves and promotes re-endothelialization; also recorded: no substantial impairment; also recorded: no significant effect
- reduction of intimal hyperplasia ([3]; local application, dose not stated at the place (Example 3)): 70%
- SMC versus EC preference in counter-screen of EC proliferation, in words ([6]; counter-screen): preferentially inhibits SMCs over ECs
- inhibition of endothelial cell proliferation [6, 9]: less than 40%
- cytotoxicity in surrounding tissues ([7]; highest dose 1 mg/mL in pluronic gel): slight cytotoxicity
- cytotoxicity in surrounding tissues ([7]; lowest dose 0.2 mg/mL in pluronic gel): without showing cytotoxicity
- inhibition of intimal hyperplasia ([7]; lowest dose 0.2 mg/mL in pluronic gel (data not shown)): > 70%
- cytotoxicity in surrounding tissues [7, 12]: without showing cytotoxicity
- inhibition of intimal hyperplasia [7, 12]: > 70%

SMILES: Oc1ccc(C=Cc2cc(O)cc(O)c2)cc1 [resveratrol]
- inhibition of the intima/media ratio ([3]; resveratrol 500 μg in 200 μL pluronic gel, perivascular, 14 days after injury): 84%
- SMC growth in cell assays, in words [4]: inhibit SMC growth
